Test results published in patent publication US20250243171A1, “QUINAZOLINE COMPOUNDS FOR TREATMENT OF DISEASE” (Arthrosi Therapeutics, Inc., priority 2021, published 2025).

Key:
Experiment in all cases: EC50 assay: Ba/F3 stable cell proliferation (CCK-8, 72 h)
Assay type in all cases: cell-based
Ba/F3 stable cells [1] = target: T1, Ba/F3 stable cells (Homo sapiens, UniProt P00533, DUP767-769, cells depend on it); conditions: Ba/F3-EGFR V769-D770insASV cells
T1 construct: EC50 Ba/F3-EGFR V769-D770insASV; other: Ba/F3-EGFR V769-D770insASV cells, 72 h, CCK-8
T1 sequence (P00533 with tags, fused parts or gaps DUP767-769): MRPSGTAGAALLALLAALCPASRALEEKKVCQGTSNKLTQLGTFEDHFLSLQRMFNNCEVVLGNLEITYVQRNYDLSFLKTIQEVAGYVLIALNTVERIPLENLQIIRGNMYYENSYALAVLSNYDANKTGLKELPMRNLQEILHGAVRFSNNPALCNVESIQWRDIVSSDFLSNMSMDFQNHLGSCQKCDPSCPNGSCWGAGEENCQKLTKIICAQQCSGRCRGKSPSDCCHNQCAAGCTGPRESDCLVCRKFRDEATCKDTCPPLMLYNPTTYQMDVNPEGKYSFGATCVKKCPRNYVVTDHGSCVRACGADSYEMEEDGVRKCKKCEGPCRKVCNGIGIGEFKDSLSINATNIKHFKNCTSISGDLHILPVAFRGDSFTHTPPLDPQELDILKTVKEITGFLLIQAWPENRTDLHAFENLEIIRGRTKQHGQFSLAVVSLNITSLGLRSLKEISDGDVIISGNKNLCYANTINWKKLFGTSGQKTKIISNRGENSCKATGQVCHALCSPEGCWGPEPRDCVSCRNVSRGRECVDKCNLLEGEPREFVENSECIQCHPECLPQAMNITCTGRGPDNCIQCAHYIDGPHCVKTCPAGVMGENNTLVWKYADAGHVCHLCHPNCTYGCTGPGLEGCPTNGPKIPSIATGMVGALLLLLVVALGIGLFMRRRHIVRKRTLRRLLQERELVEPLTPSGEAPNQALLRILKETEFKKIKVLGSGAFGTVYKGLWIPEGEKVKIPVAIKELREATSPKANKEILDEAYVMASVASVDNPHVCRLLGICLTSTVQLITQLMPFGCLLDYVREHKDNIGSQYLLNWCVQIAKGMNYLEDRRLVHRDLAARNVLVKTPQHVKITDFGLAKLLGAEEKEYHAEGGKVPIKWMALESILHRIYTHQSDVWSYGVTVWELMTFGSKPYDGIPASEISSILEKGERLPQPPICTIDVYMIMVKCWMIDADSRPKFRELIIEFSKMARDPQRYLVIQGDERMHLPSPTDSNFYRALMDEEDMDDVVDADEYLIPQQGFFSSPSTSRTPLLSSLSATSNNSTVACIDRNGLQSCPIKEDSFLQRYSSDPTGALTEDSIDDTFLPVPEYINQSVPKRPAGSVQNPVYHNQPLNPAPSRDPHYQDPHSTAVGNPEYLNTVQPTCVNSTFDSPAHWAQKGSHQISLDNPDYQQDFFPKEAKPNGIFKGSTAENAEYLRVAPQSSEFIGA
Method in brief: (§1)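 Ba/F3 stable cells were seeded at 4,000 cells/90 μL/well in 96-well plates and held 2 h at 37° C. in 5% CO2, then given 10 μL of serially titrated compound (0.1% DMSO final). After 72 h at 37° C., CCK-8 reagent was added for 4 hours and absorbance read at 450 nm to derive EC50.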

Ba/F3 stable cells [2] = target: T2, Ba/F3 stable cells (Homo sapiens, UniProt P00533, INS763FQEA, cells depend on it); conditions: Ba/F3-EGFR A763-Y764insFQEA cells
T2 construct: EC50 Ba/F3-EGFR A763-Y764insFQEA; other: Ba/F3-EGFR A763-Y764insFQEA cells, 72 h, CCK-8
T2 sequence (P00533 with tags, fused parts or gaps INS763FQEA): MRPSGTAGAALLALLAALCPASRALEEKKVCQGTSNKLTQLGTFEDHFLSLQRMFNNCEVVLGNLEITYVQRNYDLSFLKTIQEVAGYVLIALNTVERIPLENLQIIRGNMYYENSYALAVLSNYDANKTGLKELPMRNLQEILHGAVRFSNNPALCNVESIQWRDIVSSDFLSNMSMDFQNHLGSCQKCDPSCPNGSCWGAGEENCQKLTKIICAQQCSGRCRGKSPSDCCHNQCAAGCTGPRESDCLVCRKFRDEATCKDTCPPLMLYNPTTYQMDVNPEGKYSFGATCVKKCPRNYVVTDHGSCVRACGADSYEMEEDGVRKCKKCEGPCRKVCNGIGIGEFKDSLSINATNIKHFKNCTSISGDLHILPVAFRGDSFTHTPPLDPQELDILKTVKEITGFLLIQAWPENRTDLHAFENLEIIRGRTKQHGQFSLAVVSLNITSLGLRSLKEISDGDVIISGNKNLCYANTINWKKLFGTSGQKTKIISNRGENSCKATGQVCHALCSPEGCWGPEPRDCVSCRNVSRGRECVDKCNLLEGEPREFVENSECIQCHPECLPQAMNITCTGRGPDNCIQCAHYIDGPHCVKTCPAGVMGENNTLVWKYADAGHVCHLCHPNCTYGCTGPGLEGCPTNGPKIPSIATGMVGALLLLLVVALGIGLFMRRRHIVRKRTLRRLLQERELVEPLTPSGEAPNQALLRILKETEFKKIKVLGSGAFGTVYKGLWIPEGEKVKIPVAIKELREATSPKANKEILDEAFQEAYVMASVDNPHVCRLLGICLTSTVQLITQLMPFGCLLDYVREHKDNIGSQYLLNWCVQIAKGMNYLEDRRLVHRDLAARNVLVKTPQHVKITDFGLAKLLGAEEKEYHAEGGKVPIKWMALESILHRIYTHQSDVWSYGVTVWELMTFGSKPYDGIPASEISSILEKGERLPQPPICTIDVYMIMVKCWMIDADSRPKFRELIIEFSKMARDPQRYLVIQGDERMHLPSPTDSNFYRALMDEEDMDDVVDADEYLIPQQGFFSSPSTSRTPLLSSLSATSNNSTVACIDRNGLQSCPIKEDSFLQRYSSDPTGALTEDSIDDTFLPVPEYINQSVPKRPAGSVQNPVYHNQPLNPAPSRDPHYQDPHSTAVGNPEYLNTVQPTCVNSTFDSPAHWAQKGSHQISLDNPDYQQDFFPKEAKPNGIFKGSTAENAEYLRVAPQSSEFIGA
Method in brief: as §1

Ba/F3 stable cells [3] = target: T3, Ba/F3 stable cells (Homo sapiens, UniProt P00533, DUP771-773, cells depend on it); conditions: Ba/F3-EGFR H773-V774insNPH cells
T3 construct: EC50 Ba/F3-EGFR H773-V774insNPH; other: Ba/F3-EGFR H773-V774insNPH cells, 72 h, CCK-8
Method in brief: as §1

Ba/F3 stable cells [4] = target: T4, Ba/F3 stable cells (Homo sapiens, UniProt P04626, DUP772-775, cells depend on it); conditions: Ba/F3-HER2 A775-G776insYVMA cells
T4 construct: EC50 Ba/F3-HER2 A775-G776insYVMA; other: Ba/F3-HER2 A775-G776insYVMA cells, 72 h, CCK-8
T4 sequence (P04626 with tags, fused parts or gaps DUP772-775): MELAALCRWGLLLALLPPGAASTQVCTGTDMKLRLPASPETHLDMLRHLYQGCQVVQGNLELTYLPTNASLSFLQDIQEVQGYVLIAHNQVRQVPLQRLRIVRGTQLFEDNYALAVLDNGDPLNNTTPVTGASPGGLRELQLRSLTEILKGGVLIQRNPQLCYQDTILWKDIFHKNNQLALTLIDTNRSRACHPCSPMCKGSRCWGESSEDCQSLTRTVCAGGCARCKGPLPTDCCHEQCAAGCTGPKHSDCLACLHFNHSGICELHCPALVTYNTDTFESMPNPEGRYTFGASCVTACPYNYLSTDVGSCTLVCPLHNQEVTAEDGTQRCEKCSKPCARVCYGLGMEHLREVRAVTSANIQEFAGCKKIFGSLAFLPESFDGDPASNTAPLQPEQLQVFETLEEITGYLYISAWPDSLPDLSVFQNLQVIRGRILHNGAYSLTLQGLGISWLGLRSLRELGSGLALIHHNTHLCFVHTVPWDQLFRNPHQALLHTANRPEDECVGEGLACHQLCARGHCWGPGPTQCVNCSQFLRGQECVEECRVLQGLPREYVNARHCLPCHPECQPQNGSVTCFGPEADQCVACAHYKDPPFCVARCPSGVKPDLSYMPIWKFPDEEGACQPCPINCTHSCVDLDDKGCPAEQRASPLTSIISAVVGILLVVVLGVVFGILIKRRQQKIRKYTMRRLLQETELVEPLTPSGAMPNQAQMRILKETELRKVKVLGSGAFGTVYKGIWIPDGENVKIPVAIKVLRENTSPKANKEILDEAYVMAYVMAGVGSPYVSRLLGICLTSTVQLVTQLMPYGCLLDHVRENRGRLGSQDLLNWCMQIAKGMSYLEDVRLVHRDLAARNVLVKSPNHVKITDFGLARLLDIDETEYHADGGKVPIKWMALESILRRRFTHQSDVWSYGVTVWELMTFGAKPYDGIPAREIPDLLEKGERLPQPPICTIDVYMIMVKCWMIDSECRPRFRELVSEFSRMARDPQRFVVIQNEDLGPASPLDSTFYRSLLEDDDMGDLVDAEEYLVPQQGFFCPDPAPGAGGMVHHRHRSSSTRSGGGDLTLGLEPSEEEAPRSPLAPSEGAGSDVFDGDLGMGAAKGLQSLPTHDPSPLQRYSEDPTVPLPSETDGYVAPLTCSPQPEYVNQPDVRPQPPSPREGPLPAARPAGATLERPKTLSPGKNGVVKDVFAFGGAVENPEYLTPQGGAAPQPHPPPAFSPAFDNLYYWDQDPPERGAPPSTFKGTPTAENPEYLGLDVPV
Method in brief: as §1

Ba/F3 stable cells [5] = target: T5, Ba/F3 stable cells (Homo sapiens, UniProt P00533, DUP768-770, cells depend on it); conditions: Ba/F3-EGFR D770-N771insSVD cells
T5 construct: EC50 Ba/F3-EGFR D770-N771insSVD; other: Ba/F3-EGFR D770-N771insSVD cells, 72 h, CCK-8
Method in brief: as §1

Ba/F3 stable cells [6] = target: T6, Ba/F3 stable cells (Homo sapiens, UniProt P00533, T790M/L858R, cells depend on it); conditions: Ba/F3-EGFR L858R-T790M cells
T6 construct: EC50 Ba/F3-EGFR L858R-T790M; other: Ba/F3-EGFR L858R-T790M cells, 72 h, CCK-8
T6 sequence (P00533 whole entry T790M/L858R): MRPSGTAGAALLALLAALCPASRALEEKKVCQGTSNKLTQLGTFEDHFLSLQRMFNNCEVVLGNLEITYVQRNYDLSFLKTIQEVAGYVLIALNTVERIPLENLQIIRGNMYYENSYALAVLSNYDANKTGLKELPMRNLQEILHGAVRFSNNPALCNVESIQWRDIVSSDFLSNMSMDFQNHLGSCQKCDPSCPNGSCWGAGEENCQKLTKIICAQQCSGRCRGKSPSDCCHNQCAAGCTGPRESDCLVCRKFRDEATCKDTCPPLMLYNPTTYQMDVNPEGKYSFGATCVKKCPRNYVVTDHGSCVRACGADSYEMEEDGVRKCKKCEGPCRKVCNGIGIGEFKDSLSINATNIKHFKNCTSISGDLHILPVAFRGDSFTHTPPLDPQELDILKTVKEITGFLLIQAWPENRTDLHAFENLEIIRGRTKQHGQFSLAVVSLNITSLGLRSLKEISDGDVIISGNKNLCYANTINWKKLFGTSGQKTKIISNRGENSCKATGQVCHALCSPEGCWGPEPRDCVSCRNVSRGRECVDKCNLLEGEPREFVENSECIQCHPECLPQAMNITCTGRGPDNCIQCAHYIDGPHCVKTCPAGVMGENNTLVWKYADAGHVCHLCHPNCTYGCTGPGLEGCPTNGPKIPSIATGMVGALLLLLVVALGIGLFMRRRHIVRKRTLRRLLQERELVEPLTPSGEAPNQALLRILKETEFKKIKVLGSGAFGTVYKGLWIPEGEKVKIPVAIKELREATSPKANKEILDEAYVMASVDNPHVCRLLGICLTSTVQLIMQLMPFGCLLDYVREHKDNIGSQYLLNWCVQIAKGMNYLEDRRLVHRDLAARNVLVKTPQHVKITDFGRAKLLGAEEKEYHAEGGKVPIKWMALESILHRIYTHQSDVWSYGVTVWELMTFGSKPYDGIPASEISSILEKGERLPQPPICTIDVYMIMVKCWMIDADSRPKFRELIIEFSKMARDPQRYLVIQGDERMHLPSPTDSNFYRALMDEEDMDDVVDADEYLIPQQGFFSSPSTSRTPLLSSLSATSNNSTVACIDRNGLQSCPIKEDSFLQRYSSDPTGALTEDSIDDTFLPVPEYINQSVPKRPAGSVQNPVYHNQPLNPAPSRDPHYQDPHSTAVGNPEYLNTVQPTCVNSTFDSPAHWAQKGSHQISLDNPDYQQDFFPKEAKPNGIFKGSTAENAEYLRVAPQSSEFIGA
Method in brief: as §1

Structure (SMILES) | EC50 (Ba/F3 stable cells [1]) [nM] | EC50 (Ba/F3 stable cells [2]) [nM] | EC50 (Ba/F3 stable cells [3]) [nM] | EC50 (Ba/F3 stable cells [4]) [nM] | EC50 (Ba/F3 stable cells [5]) [nM] | EC50 (Ba/F3 stable cells [6]) [nM]
C=CC(=O)N1CCC(Oc2cc3c(NC(CC(N)=O)c4cccc(Cl)c4)ncnc3cc2OC)CC1 (stereo not drawn) [Compound 130, 3-((6-((1-acryloylpiperidin-4-yl)oxy)-7-methoxyquinazolin-4-yl)amino)-3-(3-chlorophenyl)propanamide] | ≤ 200 | ≤ 200 | 200 to 1000 | 200 to 1000 | > 1000 | > 1000
C=CC(=O)N(C)C1CC(Oc2cc3c(Nc4ccc(Cl)c(Cl)c4F)ncnc3cc2OC)C1 (stereo not drawn) [Compound 72, N-(3-((4-((3,4-dichloro-2-fluorophenyl)amino)-7-methoxyquinazolin-6-yl)oxy)cyclobutyl)-N-methylacrylamide] | ≤ 200 | ≤ 200 | ≤ 200 | 200 to 1000 | ≤ 200 | 200 to 1000
C=CC(=O)N1CCCC(c2ccc3ncnc(Nc4ccc(Cl)c(Cl)c4F)c3c2)C1 (stereo not drawn) [Compound 184, 1-(3-(4-((3,4-dichloro-2-fluorophenyl)amino)quinazolin-6-yl)piperidin-1-yl)prop-2-en-1-one] | ≤ 200 | ≤ 200 | 200 to 1000 | ≤ 200 | 200 to 1000 | > 1000
C=CS(=O)(=O)NC1CC(Oc2cc3c(Nc4ccc(Cl)c(Cl)c4F)ncnc3cc2OC)C1 (stereo not drawn) [Compound 191, N-(3-((4-((3,4-dichloro-2-fluorophenyl)amino)-7-methoxyquinazolin-6-yl)oxy)cyclobutyl)ethenesulfonamide] | ≤ 200 | ≤ 200 | ≤ 200 | > 1000 | ≤ 200 | ≤ 200
C=CC(=O)N1CCC(Oc2cc3c(NC(=O)c4ccc(F)cc4)ncnc3cc2OC)CC1 [Compound 98, N-(6-((1-acryloylpiperidin-4-yl)oxy)-7-methoxyquinazolin-4-yl)-4-fluorobenzamide] | > 1000 | 200 to 1000 | > 1000 | > 1000 | > 1000 | > 1000
C=CC(=O)N1CCC(Oc2cc3c(Nc4ccc5cn[nH]c5c4)ncnc3cc2OC)CC1 [Compound 137, 1-(4-((4-((1H-indazol-6-yl)amino)-7-methoxyquinazolin-6-yl)oxy)piperidin-1-yl)prop-2-en-1-one] | 200 to 1000 | ≤ 200 | > 1000 | 200 to 1000 | > 1000 | > 1000
C=CC(=O)N1CCC(c2ccc3ncnc(Nc4ccc(Cl)c(Cl)c4F)c3c2)CC1 [Compound 9, 1-(4-(4-((3,4-dichloro-2-fluorophenyl)amino)quinazolin-6-yl)piperidin-1-yl)prop-2-en-1-one] | > 1000 | ≤ 200 | > 1000 | 200 to 1000 | > 1000 | > 1000
C=C(F)C(=O)N1CCC(Oc2cc3c(Nc4ccc(Cl)c(Cl)c4F)ncnc3cc2OC)CC1 [Compound 50, 1-(4-((4-((3,4-dichloro-2-fluorophenyl)amino)-7-methoxyquinazolin-6-yl)oxy)piperidin-1-yl)-2-fluoroprop-2-en-1-one] | ≤ 200 | ≤ 200 | 200 to 1000 | 200 to 1000 | > 1000 | > 1000
C=CC(=O)N1CCC(Oc2cc3c(NC(CCO)c4cccc(Cl)c4)ncnc3cc2OC)CC1 (stereo not drawn) [Compound 131, 1-(4-((4-((1-(3-chlorophenyl)-3-hydroxypropyl)amino)-7-methoxyquinazolin-6-yl)oxy)piperidin-1-yl)prop-2-en-1-one] | ≤ 200 | ≤ 200 | ≤ 200 | ≤ 200 | ≤ 200 | > 1000
